Test results taken from paper PMC6968633, “Synthesis, antibacterial and anticancer activity, and docking study of aminoguanidines containing an alkynyl moiety” (Journal of Enzyme Inhibition and Medicinal Chemistry, 2019).
Values after ≈ are worked out from the molar mass of the structure shown. Where two headings read alike, the source gives them in different places.

Columns and labels:
A549 = experiment: Cytotoxicity, CCK-8 assay; type: cell-based; details: Homo sapiens, A549 lung cancer cells, 48 h
Procedure: (§1) A lung cancer cell line (A549), gastric cancer cell line (SGC7901) and human hepatocytes (L02) were used to test the anticancer activity and cytotoxicity of the new compounds. 5-Fluorouracil (5-FU) was used as the positive control against cancer cell lines. The A549, SGC7901 and L02 cells were grown in Dulbecco’s modified Eagle’s medium (DMEM) supplemented with 10% foetal bovine serum (FBS) and antibiotics (100 U/mL penicillin-streptomycin). Cells at 80–90% confluence were split by trypsin (0.25% in PBS; pH 7.4), and the medium was changed at 24 h intervals. The cells were cultured at 37 °C in a 5% CO2 incubator. The cells were passaged three times, then approximately 1 × 10^4 cells were seeded into each well of a 96-well plate and allowed to incubate to allow attachment of the cells to the surface. After 24 h, the medium was replaced with DMEM supplemented with 10% FBS containing various concentrations (0.1, 0.3, 1, 3, 10, and 30 μg/mL) of test compounds. Each concentration was tested in triplicate. After 48 h treatment, 20 µL of CCK-8 solution was added to each well and the optical density measured at 450 nm after 3 h using a microplate reader. The IC50 values were defined as the concentrations inhibiting 50% of cell growth.

SGC7901 = experiment: Cytotoxicity, CCK-8 assay; type: cell-based; details: Homo sapiens, SGC-7901, SGC7901 gastric cancer cells, 48 h
Procedure: as §1

L02 = experiment: Cytotoxicity, CCK-8 assay, normal cell line; type: cell-based; details: L02 normal human hepatocytes, 48 h
Procedure: as §1

[1] = test system: Staphyiococcus aureus CMCC 25923; experiment: Antibacterial MIC, serial dilution; type: cell-based, Staphylococcus aureus
Procedure: (§2) Test bacteria were grown to mid-log phase in Mueller–Hinton broth (MHB) or Tryptone Soya Broth (TSB) and diluted 1000-fold in the same medium. Bacteria (10^5 CFU/mL) were inoculated into MHB or TSB and dispensed at 0.2 ml/well into a 96-well microtiter plate. As positive controls, gatifloxacin, moxifloxacin, norfloxacin, oxacillin, and penicillin were used. […] Bacterial growth was determined by measuring the absorption at 630 nm using a microplate reader. All experiments were carried out three times.
(§3) The evaluation of antibacterial activity of all compounds (3a–3j and 6a–6k) was performed by a serial dilution method to determine the MIC against a panel of pathogens comprising five Gram-positive strains (S. aureus (CMCC(B) 26003 and CMCC 25923), Streptococcus mutans BNCC 336931, Enterococcus faecalis CMCC 29212, and Bacillus subtilis CMCC 63501), four Gram-negative strains (E. coli (CMCC 25922 and CMCC 44568) and P. aeruginosa (CMCC 27853 and CMCC 10104)), as well as three methicillin-resistant clinical isolates (S. aureus ATCC 43300 and ATCC 33591, P. aeruginosa ATCC BAA-2111). The results are described in Tables 1 and 2. Gatifloxacin, moxifloxacin, norfloxacin, oxacillin, and penicillin were used as positive controls.

[2] = test system: Bacillus subtilis CMCC 63501; experiment: Antibacterial MIC, serial dilution; type: cell-based
Procedure: as §2, §3

[3] = test system: Enterococcus faecalis CMCC 29212; experiment: Antibacterial MIC, serial dilution; type: cell-based; details: E. faecalis CMCC 29212, 24 h, 37 °C
Procedure: as §2, §3

[4] = test system: Escherichia coli CMCC 25922; experiment: Antibacterial MIC, serial dilution; type: cell-based
Procedure: as §2, §3

[5] = test system: Escherichia coli CMCC 44568; experiment: Antibacterial MIC, serial dilution; type: cell-based
Procedure: as §2, §3

[6] = test system: Pseudomonas aeruginosa CMCC 10104; experiment: Antibacterial MIC, serial dilution; type: cell-based; details: P. aeruginosa CMCC 10104, 24 h, 37 °C
Procedure: as §2, §3

[7] = test system: Pseudomonas aeruginosa CMCC 27853; experiment: Antibacterial MIC, serial dilution; type: cell-based
Procedure: as §2, §3

[8] = test system: Staphylococcus aureus CMCC(B)26003; experiment: Antibacterial MIC, serial dilution; type: cell-based
Procedure: as §2, §3

[9] = test system: Streptococcus mutans BNCC 336931; experiment: Antibacterial MIC, serial dilution; type: cell-based; details: S. mutans BNCC 336931, 24 h, 37 °C
Procedure: as §2, §3

[10] = test system: Staphylococcus aureus ATCC 33591; experiment: Antibacterial MIC, multidrug-resistant clinical isolate; type: cell-based; details: multidrug-resistant S. aureus ATCC 33591
Procedure: as §2, §3

[11] = test system: Staphylococcus aureus ATCC 43300; experiment: as above; type: cell-based; details: multidrug-resistant S. aureus ATCC 43300
Procedure: as §2, §3

[12] = Staphylococcus aureus, CMCC25923, S. aureus CMCC 25923, 24 h, 37 °C, read-out: MIC
[13] = Bacillus subtilis, CMCC63501, B. subtilis CMCC 63501, 24 h, 37 °C, read-out: MIC
[14] = Enterococcus faecalis, CMCC29212, read-out: MIC
[15] = Escherichia coli, CMCC25922, E. coli CMCC 25922, 24 h, 37 °C, read-out: MIC
[16] = Escherichia coli, CMCC44568, E. coli CMCC 44568, 24 h, 37 °C, read-out: MIC
[17] = Pseudomonas aeruginosa, CMCC10104, read-out: MIC
[18] = Pseudomonas aeruginosa, CMCC27853, P. aeruginosa CMCC 27853, 24 h, 37 °C, read-out: MIC
[19] = Staphylococcus aureus, S. aureus CMCC(B)26003, 24 h, 37 °C, read-out: MIC
[20] = Streptococcus mutans, BNCC336931, read-out: MIC
[21] = Staphylococcus aureus, ATCC33591, read-out: MIC
[22] = Staphylococcus aureus, ATCC43300, read-out: MIC
[23] = Escherichia coli, CMCC44568, 24 h

Molecule	MIC [1, 12] [µg/mL]	MIC [2, 13] [µg/mL]	MIC [3, 14] [µg/mL]	MIC [4, 15] [µg/mL]	MIC [5, 16] [µg/mL]	MIC [6, 17] [µg/mL]	MIC [7, 18] [µg/mL]	MIC [8, 19] [µg/mL]	MIC [9, 20] [µg/mL]	melting point [°C]	MIC [10, 21] [µg/mL]	MIC [11, 22] [µg/mL]	further results
O=c1[nH]cc(F)c(=O)[nH]1 [5-Fluorouracil, reference compound]													IC50 (A549): 0.88 µg/mL (≈ 6.77 µM); IC50 (SGC7901): 2.56 µg/mL (≈ 19.7 µM); IC50 (L02): 8.44 µg/mL (≈ 64.9 µM)
N=C(N)NN=Cc1ccc(C#Cc2ccccc2)cc1 [Compound 3a, 2-(4-(Phenylethynyl)benzylidene)hydrazine-1-carboximidamide]	4 (≈ 15.2 µM)	2 (≈ 7.62 µM)	1 (≈ 3.81 µM)	4 (≈ 15.2 µM)	4 (≈ 15.2 µM)	4 (≈ 15.2 µM)	16 (≈ 61 µM)	1 (≈ 3.81 µM)	4 (≈ 15.2 µM)	225 to 226			
N=C(N)NN=Cc1ccc(C#Cc2ccccc2F)cc1 [Compound 3b, 2-(4-((2-Fluorophenyl)ethynyl)benzylidene)hydrazine-1-carboximidamide]	8 (≈ 28.5 µM)	2 (≈ 7.14 µM)	1 (≈ 3.57 µM)	4 (≈ 14.3 µM)	8 (≈ 28.5 µM)	8 (≈ 28.5 µM)	128 (≈ 457 µM)	1 (≈ 3.57 µM)	4 (≈ 14.3 µM)	189 to 190			
N=C(N)NN=Cc1ccc(C#Cc2cccc(F)c2)cc1 [Compound 3c, 2-(4-((3-Fluorophenyl)ethynyl)benzylidene)hydrazine-1-carboximidamide]	4 (≈ 14.3 µM)	1 (≈ 3.57 µM)	1 (≈ 3.57 µM)	2 (≈ 7.14 µM)	4 (≈ 14.3 µM)	2 (≈ 7.14 µM)	16 (≈ 57.1 µM)	1 (≈ 3.57 µM)	2 (≈ 7.14 µM)	223 to 224	1 (≈ 3.57 µM)	2 (≈ 7.14 µM)	
N=C(N)NN=Cc1ccc(C#Cc2ccc(F)cc2)cc1 [Compound 3d, 2-(4-((4-Fluorophenyl)ethynyl)benzylidene)hydrazine-1-carboximidamide]	2 (≈ 7.14 µM)	1 (≈ 3.57 µM)	1 (≈ 3.57 µM)	2 (≈ 7.14 µM)	8 (≈ 28.5 µM)	2 (≈ 7.14 µM)	8 (≈ 28.5 µM)	1 (≈ 3.57 µM)	4 (≈ 14.3 µM)	238 to 239	1 (≈ 3.57 µM)	4 (≈ 14.3 µM)	
N=C(N)NN=Cc1ccc(C#Cc2ccccc2Br)cc1 [Compound 3h, 2-(4-((2-Bromophenyl)ethynyl)benzylidene)hydrazine-1-carboximidamide]	1 (≈ 2.93 µM)	2 (≈ 5.86 µM)	1 (≈ 2.93 µM)	4 (≈ 11.7 µM)	4 (≈ 11.7 µM)	8 (≈ 23.4 µM)	> 128	2 (≈ 5.86 µM)	2 (≈ 5.86 µM)	188 to 190			
N=C(N)NN=Cc1ccc(C#Cc2ccc(Br)cc2)cc1 [Compound 3j, 2-(4-((4-Bromophenyl)ethynyl)benzylidene)hydrazine-1-carboximidamide]	1 (≈ 2.93 µM)	128 (≈ 375 µM)	0.5 (≈ 1.47 µM)	2 (≈ 5.86 µM)	128 (≈ 375 µM)	128 (≈ 375 µM)	> 128	0.5 (≈ 1.47 µM)	0.5 (≈ 1.47 µM)	242 to 243	0.5 (≈ 1.47 µM)	2 (≈ 5.86 µM)	
N=C(N)NN=Cc1ccc(C#CC#Cc2cccc(F)c2)cc1 [Compound 6c, 2-(4-((3-Fluorophenyl)buta-1,3-diyn-1-yl)benzylidene)hydrazine-1-carboximidamide]	128 (≈ 421 µM)	2 (≈ 6.57 µM)	0.5 (≈ 1.64 µM)	2 (≈ 6.57 µM)	> 128	4 (≈ 13.1 µM)	> 128	128 (≈ 421 µM)	0.5 (≈ 1.64 µM)	186 to 190			
N=C(N)NN=Cc1ccc(C#CC#Cc2cccc(Cl)c2)cc1 [Compound 6f, 2-(4-((3-Chlorophenyl)buta-1,3-diyn-1-yl)benzylidene)hydrazine-1-carboximidamide]	8 (≈ 24.9 µM)	4 (≈ 12.5 µM)	0.5 (≈ 1.56 µM)	4 (≈ 12.5 µM)	32 (≈ 99.8 µM)	16 (≈ 49.9 µM)	> 128	1 (≈ 3.12 µM)	0.5 (≈ 1.56 µM)	198 to 201			
N=C(N)NN=Cc1ccc(C#CC#Cc2ccccc2Br)cc1 [Compound 6h, 2-(4-((2-Bromophenyl)buta-1,3-diyn-1-yl)benzylidene)hydrazine-1-carboximidamide]	32 (≈ 87.6 µM)	2 (≈ 5.48 µM)	0.5 (≈ 1.37 µM)	8 (≈ 21.9 µM)	128 (≈ 350 µM)	8 (≈ 21.9 µM)	> 128	1 (≈ 2.74 µM)	1 (≈ 2.74 µM)	217 to 219			
N=C(N)NN=Cc1ccc(C#CC#Cc2ccc(Br)cc2)cc1 [Compound 6j, 2-(4-((4-Bromophenyl)buta-1,3-diyn-1-yl)benzylidene)hydrazine-1-carboximidamide]	> 128	> 128	128 (≈ 350 µM)	> 128	> 128	> 128	> 128	128 (≈ 350 µM)	> 128	227 to 230			
COc1c(N2C[C@@H]3CCCN[C@@H]3C2)c(F)cc2c(=O)c(C(=O)O)cn(C3CC3)c12 [Moxifloxacin, reference compound]						4 (≈ 9.96 µM)			0.5 (≈ 1.25 µM)		0.25 (≈ 0.623 µM)	0.5 (≈ 1.25 µM)	MIC ([1]; Staphylococcus aureus, CMCC25923, 24 h): 0.125 µg/mL (≈ 0.311 µM); MIC ([4]; Escherichia coli, CMCC25922, 24 h): 0.125 µg/mL (≈ 0.311 µM); MIC [5, 23]: 0.125 µg/mL (≈ 0.311 µM); MIC ([8]; Staphylococcus aureus, 24 h): 0.125 µg/mL (≈ 0.311 µM)
Cc1onc(-c2ccccc2)c1C(=O)N[C@@H]1C(=O)N2[C@@H]1SC(C)(C)[C@@H]2C(=O)O [Oxacillin, reference compound]	0.125 (≈ 0.311 µM)		128 (≈ 319 µM)	128 (≈ 319 µM)		128 (≈ 319 µM)		0.125 (≈ 0.311 µM)	0.125 (≈ 0.311 µM)		8 (≈ 19.9 µM)	64 (≈ 159 µM)	MIC ([2]; Bacillus subtilis, CMCC63501, 24 h): > 128 µg/mL; MIC [5, 23]: > 128 µg/mL; MIC ([7]; Pseudomonas aeruginosa, CMCC27853, 24 h): > 128 µg/mL
Penicillin [reference compound]													MIC ([1]; S. aureus CMCC 25923, 24 h, 37 °C): 0.125 µg/mL; MIC ([2]; B. subtilis CMCC 63501, 24 h, 37 °C): 128 µg/mL; MIC [3]: 128 µg/mL; MIC ([4]; E. coli CMCC 25922, 24 h, 37 °C): 128 µg/mL; MIC ([5]; E. coli CMCC 44568, 24 h, 37 °C): >128 µg/mL; MIC [6]: 32 µg/mL; MIC ([7]; P. aeruginosa CMCC 27853, 24 h, 37 °C): >128 µg/mL; MIC ([8]; S. aureus CMCC(B)26003, 24 h, 37 °C): 0.125 µg/mL; MIC [9]: 0.125 µg/mL; MIC [10]: >32 µg/mL; MIC ([10]; listed as penicillin): > 32 µg/mL; MIC [11]: 32 µg/mL
